Experimental findings from paper PMC6127216, “The quaternary structure of Thermus thermophilus aldehyde dehydrogenase is stabilized by an evolutionary distinct C-terminal arm extension” (Scientific Reports, 2018) are described below.

The target of data set [1] is T1, ALDHTt530 (recombinant wild type ALDHTt) (Thermus thermophilus, UniProt Q72KD3).
T1 construct: gene TT_C0513; full length, 530 residues; homotetramer; 6FJX is the native protein
T1 sequence (Q72KD3 1-530): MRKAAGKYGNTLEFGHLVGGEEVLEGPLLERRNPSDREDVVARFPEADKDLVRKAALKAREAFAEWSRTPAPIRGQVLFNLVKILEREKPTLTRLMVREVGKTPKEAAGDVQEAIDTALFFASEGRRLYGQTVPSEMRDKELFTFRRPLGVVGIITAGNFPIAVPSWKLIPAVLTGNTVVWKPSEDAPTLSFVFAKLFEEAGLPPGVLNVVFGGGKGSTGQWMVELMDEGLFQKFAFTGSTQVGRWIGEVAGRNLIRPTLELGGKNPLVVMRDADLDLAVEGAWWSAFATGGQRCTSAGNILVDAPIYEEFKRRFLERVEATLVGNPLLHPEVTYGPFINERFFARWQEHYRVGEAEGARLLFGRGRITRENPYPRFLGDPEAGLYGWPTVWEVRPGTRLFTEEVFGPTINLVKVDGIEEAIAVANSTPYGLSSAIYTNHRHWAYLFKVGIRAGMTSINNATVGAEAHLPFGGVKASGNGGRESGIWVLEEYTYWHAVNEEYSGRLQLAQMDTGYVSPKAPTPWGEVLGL
In words: X-ray crystal structure. Type of data set: binding. Particulars: crystals with 50 mM propanal; substrate entry channel, anchor loop.

Data set [2] deals with T2, ALDHTt515 (Thermus thermophilus, UniProt Q72KD3).
T2 construct: gene TT_C0513; C-terminal truncation lacking the last 15 of 530 residues; tetramer; not the natural 515-residue HB8 enzyme
Briefly: X-ray crystal structure. To be noted: co-crystallised with 1 mM NADP+; cofactor binding cleft.

The target in data set [3] is native aldehyde dehydrogenase from Thermus thermophilus (ALDHTt native) (Thermus thermophilus). In words: crystal structure; sitting-drop vapor diffusion at 20 °C against 50 mM MOPS pH 7.5 and 1.2 M ammonium sulfate; space group P4(1)2(1)2, two copies in the asymmetric unit, tetramer by NCS and crystallographic symmetry; recombinant proteins in the same conditions (ALDHTt515 with 1 mM NADP+, ALDHTt530 with 50 mM propanal).

Data set [4] addresses T2, ALDHTt515. Briefly: fluorescence of NADH formation. It counts as biochemical. Particulars: 0.4 mM NAD+, 1 mM hexanal, pH 8.0, 50 °C; turnover only.
In another data set the target is T3, ALDHTt508 (Thermus thermophilus, UniProt Q72KD3).
T3 construct: gene TT_C0513; C-terminal truncation after residue 508 of 530; tetramer
Briefly: fluorescence of NADH formation. Type of data set: biochemical. Particulars: 0.4 mM NAD+, 1 mM hexanal, pH 8.0, 50 °C; turnover only.

Substrate in data set [5]: CCC=O
In words: fluorescence of NADH formation. Type of data set: biochemical, Thermus thermophilus. To be noted: 25 °C, NAD+ as cofactor, pH 8.0 (standard assay).

`CCC(=O)O` [propanoic acid]: the X-ray crystal structure result in data set [1] was “yielded a structure with a product molecule, propanoic acid, in monomer A and B”.
With `NC(=O)c1ccc[n+]([C@@H]2O[C@H](COP(=O)(O)OP(=O)(O)OC[C@H]3O[C@@H](n4cnc5c(N)ncnc54)[C@H](OP(=O)(O)O)[C@@H]3O)[C@@H](O)[C@H]2O)c1` [NADP^+], on ALDHTt515 [2], the X-ray crystal structure result is listed as “The co-crystal structure of ALDHTt515 was solved with NADP^+ bound”.
The term stoichiometry N denotes a count of units in the complex or per binding partner. In the case of “native aldehyde dehydrogenase from Thermus thermophilus (ALDHTt native) (enzyme)”, the stoichiometry N in data set [3] came out at 4.
With `NC(=O)c1ccc[n+]([C@@H]2O[C@H](COP(=O)(O)OP(=O)(O)OC[C@H]3O[C@@H](n4cnc5c(N)ncnc54)[C@H](O)[C@@H]3O)[C@@H](O)[C@H]2O)c1` [NAD^+], the “fluorescence of NADH formation” value was “both truncated mutants ALDHTt508 and ALDHTt515 were slightly more active” at ALDHTt515 [4]; “both truncated mutants ALDHTt508 and ALDHTt515 were slightly more active” at ALDHTt508.

B1: ALDHTt530 (recombinant wild type ALDHTt) (Thermus thermophilus HB27) (protein)
chain: T1 sequence (Q72KD3 1-530)
notes: full length, 530 residues; homotetramer; 6FJX is the native protein
Broadly, the Km is the substrate concentration at which the rate is half of its maximum. For the molecule B1, the Michaelis-Menten constant (Km) in data set [5] worked out at 2760 µM.
